In patent US20240182413A1, “INSECTICIDAL COMPOUNDS” (Pluton Biosciences, Inc., priority 2022, published 2024):
Where “and” joins values, the source holds several entries; their conditions need not be identical. Equal values may be shown once. Read-outs that look alike come from different tables or passages of the source.

How the values were obtained:
Aedes aegypti larvae = assay: Aedes aegypti killing assay (larval bioassay, two-fold dilution series); type: in vivo; details: Aedes aegypti, 72 h
Description: Insect killing assays. Each compound was dissolved in dimethyl sulfoxide (DMSO). Killing dose curves were constructed for each compound by producing a two-fold dilution series for each compound (e.g., comprising approximately 20 serial dilutions of a stock). Dilutions were made in sterile nutrient yeast extract salt medium (NYSM) broth. The NYSM contained 8 g/L nutrient broth powder, 0.5 g/L yeast extract, 1 mM MgCl2, 700 μM CaCl2, and 50 μM MnCl2 in water. The two-fold dilution series were tested in a killing bioassay as described below. Data were collected to construct a dose curve and determine the half-maximal lethal concentration (LC50) value.
Bioassays were performed using second or third instar Aedes aegypti larvae, with biological replication. Ae. aegpyti larvae were purchased from Benzon Research, Inc. (Carlisle, PA). Larvae were washed with sterile water before transfer to 24-well assay plates containing 1 mL of sterile water in each well. Each well contained 5 larvae. The final DMSO concentration in each assay well was 1%. Larval mortality was scored for each well at 24-hour timepoints after application. […] In Table 1, mean mortalities and standard deviations were calculated from at least three independent biological replicates. […] LC50 values were calculated using GraphPad Prism software.

[1] = test system: Spodoptera frugiperda (fall armyworm) first instar larvae; assay: Spodoptera frugiperda killing assay (diet-surface overlay); type: in vivo
Description: Insect killing assays. Each compound was dissolved in dimethyl sulfoxide (DMSO). Killing dose curves were constructed for each compound by producing a two-fold dilution series of the compound (e.g., comprising approximately 16 serial dilutions of a stock for 3,3′-diindolylmethane and 3-((1H-Indol-2-yl)methyl)-1H-indole and comprising approximately 12 serial dilutions of a stock for 3,3′-diindolyl and 3,3′-(pyridin-4-ylmethylene)bis(1H-indole)). Dilutions were made in sterile NYSM broth as described above. The two-fold dilution series were tested in a killing bioassay as described below. Data were collected to construct a dose curve and determine the half-maximal lethal concentration (LC50) value.
Bioassays were performed using first instar larvae of the Lepidopteran species Spodoptera frugiperda (fall armyworm), with an N=16 for each concentration of compound tested. S. frugiperda larvae were purchased from Benzon Research, Inc. (Carlisle, PA). A diet-surface overlay format was used in which 1 milliliter of standard lepidopteran diet was placed in each well. One hundred microliters of sample were pipetted into each well and allowed to dry. A DMSO control was included with each set of samples.
During the development of embodiments of the technology described herein, experiments were conducted to test the killing of arundine against a panel of 11 insect species. […] Briefly, arundine was dissolved in dimethyl sulfoxide (DMSO). Killing dose curves were constructed by producing a two-fold dilution series of arundine. Dilutions were made in sterile NYSM as described. The two-fold dilution series were tested in a killing bioassay performed using first instar larvae of the species listed in Table 4, with an N=16 for each concentration of compound tested. A diet-surface overlay format was used in which 1 milliliter of standard lepidopteran diet was placed in each well. One hundred microliters of sample were pipetted into each well and allowed to dry. A DMSO control was included with each set of samples. […] Data were collected to construct a dose curve and determine the half-maximal lethal concentration (LC50) value.

Aedes aegypti = details: previously shown; cited from earlier work
[2] = test system: A. gemmatalis (Velvetbean caterpillar) first instar larvae; assay: Insect panel killing assay (diet-surface overlay); type: in vivo
Description: (§1) During the development of embodiments of the technology described herein, experiments were conducted to test the killing of arundine against a panel of 11 insect species. Killing assays were performed as described in Example 2 for Spodoptera frugiperda. Briefly, arundine was dissolved in dimethyl sulfoxide (DMSO). Killing dose curves were constructed by producing a two-fold dilution series of arundine. Dilutions were made in sterile NYSM as described. The two-fold dilution series were tested in a killing bioassay performed using first instar larvae of the species listed in Table 4, with an N=16 for each concentration of compound tested. A diet-surface overlay format was used in which 1 milliliter of standard lepidopteran diet was placed in each well. One hundred microliters of sample were pipetted into each well and allowed to dry. A DMSO control was included with each set of samples. Spinosad (MilliporeSigma, catalog #33706) was used as a positive control for insecticidal activity, and water was used as an additional negative control. Data were collected to construct a dose curve and determine the half-maximal lethal concentration (LC50) value. In Table 4, % of insects killed is provided in the table cells for the concentrations listed at the top (2500, 625, 156, and 0 μg/mL arundine).

[3] = test system: C. includens (Soybean looper) first instar larvae; assay: Insect panel killing assay (diet-surface overlay); type: in vivo
Description: as §1

[4] = test system: C. pomonella (Codling moth) first instar larvae; assay: Insect panel killing assay (diet-surface overlay); type: in vivo
Description: as §1

[5] = test system: D. grandiosella (Southwestern corn borer) first instar larvae; assay: Insect panel killing assay (diet-surface overlay); type: in vivo
Description: as §1

[6] = test system: D. saccharalis (Sugarcane borer) first instar larvae; assay: Insect panel killing assay (diet-surface overlay); type: in vivo
Description: as §1

[7] = test system: H. virescens (Tobacco budworm) first instar larvae; assay: Insect panel killing assay (diet-surface overlay); type: in vivo
Description: as §1

[8] = test system: H. zea (Corn earworm) first instar larvae; assay: Insect panel killing assay (diet-surface overlay); type: in vivo
Description: as §1

[9] = test system: S. eridania (Southern armyworm) first instar larvae; assay: Insect panel killing assay (diet-surface overlay); type: in vivo
Description: as §1

[10] = test system: S. exigua (Beet armyworm) first instar larvae; assay: Insect panel killing assay (diet-surface overlay); type: in vivo
Description: as §1

[11] = test system: T. ni (Cabbage looper) first instar larvae; assay: Insect panel killing assay (diet-surface overlay); type: in vivo
Description: as §1

[12] = test system: fall armyworm (Spodoptera frugiperda); details: after seven days of exposure; cited from earlier work
Vip3A resistant FAW = assay: Killing of Vip3A resistant fall armyworm; type: in vivo, Spodoptera frugiperda; details: 1000 ppm BIM compound, 20 μl on diet surface, 5-7 days
Description: (§2) During the development of embodiments of the technology provided herein, experiments were conducted to test the killing potency of arundine-derived BIM compounds against strains of fall armyworm (FAW) that are resistant to Bacillus thuringiensis (Bt) insecticidal proteins (e.g., Cry1Fa and Vip3A). Susceptible FAW (Spodoptera frugiperda) was obtained from Benzon Research Inc, Lancaster, PA. Cry1Fa resistant FAW originating from Puerto Rico was reared in a facility by Genective (Weldon, IL). Vip3A resistant FAW originating from southern US was reared in a facility by Genective (Weldon, IL).
(§3) FAW eggs were incubated at approximately 26° C. at 50% relative humidity until eclosion (approximately 3 days) and the hatch was timed to within 12 hours of infesting the diet plates. BIM compounds were obtained from frozen stocks, thawed, suspended in 5% DMSO along with NYSM buffer to provide a solution of 2000 ppm BIM compound in a total volume of 1.0 ml, and stored at −20° C. For testing, a single tube of each BIM compound sample was thawed at 4° C. NYSM buffer was warmed to room temperature. A volume of 750 μl. NYSM buffer was added to 750 μl from each 1.0-ml volume to prepare samples of 1.5 ml BIM compound at 1000 ppm for testing. A total of three BIM preparations per BIM molecule were prepared and tested for killing potency. Compounds tested were BIM-1, 11, 25, 26, 28, 29, 30, 32, 34. A solution of 5% DMSO in NYSM buffer was used as a negative control.
A standard commercially available semi-solid lepidopteran diet was prepared following manufacturer's instructions (Frontier, multi-species diet). […] LB+Kanamycin (antibiotic) growth media is the negative control for bacterial cultures. […]
(§4) For each of 3 replicates, 200 μl of diet was prepared in wells of a 96-well plate and the diet plates were warmed to room temperature prior to dispensing samples. […] All bioassays were assessed visually to record larval mortality and growth inhibition.

Cry1Fa resistant FAW = assay: Killing of Cry1Fa resistant fall armyworm; type: in vivo, Spodoptera frugiperda; details: 1000 ppm BIM compound, 20 μl on diet surface, 5-7 days
Description: as §2, §3
A standard commercially available semi-solid lepidopteran diet was prepared following manufacturer's instructions (Frontier, multi-species diet). […] LB+Kanamycin (antibiotic) growth media is the negative control for bacterial cultures. Cry1Fa is a positive control prepared as E. coli cells expressing the full-length Cry1Fa protein resuspended in PBS buffer at half the volume of the original growth culture resulting in 2× concentration of cells. Vip3A is a positive control prepared as E. coli whole cell culture expressing Vip3A.
For each of 3 replicates, 200 μl of diet was prepared in wells of a 96-well plate and the diet plates were warmed to room temperature prior to dispensing samples. After 750 μl NYSM buffer was added to 750 μl from each 1.0-ml volume to prepare samples of 1.5 ml BIM compound at 1000 ppm for testing, BIM solutions were vortexed and 20 μl were dispensed onto the diet surface in each of 16 wells using a repeating pipettor. These steps were repeated for each sample and control for each insect population being tested. BIM compound and control solutions were allowed to absorb into the diet in a biosafety hood until the diet surface was visibly dry. Once dry, wells were sealed with a clear membrane. Two pin holes were poked through the membrane in each well to maintain appropriate humidity level and aeration. Each well was infested with a single neonate larva, and the wells were resealed with perforated membrane to prevent escape. The infested plates were incubated in environmental chambers at 26° C. and 50% relative humidity for 5-7 days. All bioassays were assessed visually to record larval mortality and growth inhibition.

[13] = test system: fall armyworm (FAW), susceptible and the two resistant varieties (Cry1 and Vip3A); assay: Killing of susceptible and Bt-resistant fall armyworm (strain not specified); type: in vivo, Spodoptera frugiperda; details: 1000 ppm BIM compound, 20 μl on diet surface, neonate larvae, at 7 days
Description: as §2
FAW eggs were incubated at approximately 26° C. at 50% relative humidity until eclosion (approximately 3 days) and the hatch was timed to within 12 hours of infesting the diet plates. BIM compounds were obtained from frozen stocks, thawed, suspended in 5% DMSO along with NYSM buffer to provide a solution of 2000 ppm BIM compound in a total volume of 1.0 ml, and stored at −20° C. For testing, a single tube of each BIM compound sample was thawed at 4° C. NYSM buffer was warmed to room temperature. A volume of 750 μl. […]
as §4

[14] = Spodoptera frugiperda, first instar larvae, calculated from killing dose curves FIG. 3D to 3NN, read-out: LD50 (the source's name)

c1ccc2[nH]c(Cc3c[nH]c4ccccc34)cc2c1 [3-((1H-indol-2-yl)methyl)-1H-indole, 3-((1H-Indol-2-yl)methyl)-1H-indole]
LC50 (Aedes aegypti larvae): 5.5 µg/mL and 22.5 µM | LC50 ([1]; Spodoptera frugiperda, first instar larvae, N=16 per concentration, representative curve fit): 598 µg/mL and 2.4 mM | activity against S. frugiperda ([1]; first instar larvae): active | activity against Aedes aegypti (Aedes aegypti): active

c1ccc2c(Cc3c[nH]c4ccccc34)c[nH]c2c1 [Arundine, 3,3′-diindolylmethane]
% killing ([1]; 156 μg/mL arundine): 40% | % killing ([1]; 625 μg/mL arundine): 63% | % killing ([1]; 2500 μg/mL arundine): 97% | LC50 [1, 14]: 1820 µM | % killing ([2]; 156 μg/mL arundine): 100% | % killing ([2]; 625 μg/mL arundine): 70% | % killing ([2]; 2500 μg/mL arundine): 97% | % killing ([3]; 156 μg/mL arundine): 27% | % killing ([3]; 625 μg/mL arundine): 50% | % killing ([3]; 2500 μg/mL arundine): 80% | % killing ([4]; 156 μg/mL arundine): 21% | % killing ([4]; 625 μg/mL arundine): 50% | % killing ([4]; 2500 μg/mL arundine): 39% | % killing ([5]; 156 μg/mL arundine): 47% | % killing ([5]; 625 μg/mL arundine): 90% | % killing ([5]; 2500 μg/mL arundine): 83% | % killing ([6]; 156 μg/mL arundine): 100% | % killing ([6]; 625 μg/mL arundine): 100% | % killing ([6]; 2500 μg/mL arundine): 100% | % killing ([7]; 156 μg/mL arundine): 74% | % killing ([7]; 625 μg/mL arundine): 74% | % killing ([7]; 2500 μg/mL arundine): 87% | % killing ([8]; 156 μg/mL arundine): 40% | % killing ([8]; 625 μg/mL arundine): 50% | % killing ([8]; 2500 μg/mL arundine): 90% | % killing ([9]; 156 μg/mL arundine): 23% | % killing ([9]; 625 μg/mL arundine): 100% | % killing ([9]; 2500 μg/mL arundine): 100% | % killing ([10]; 156 μg/mL arundine): 72% | % killing ([10]; 625 μg/mL arundine): 94% | % killing ([10]; 2500 μg/mL arundine): 72% | % killing ([11]; 156 μg/mL arundine): 41% | % killing ([11]; 625 μg/mL arundine): 72% | % killing ([11]; 2500 μg/mL arundine): 93% | mortality [12]: greater than 95%

Clc1ccc2c(Cc3c[nH]c4cc(Cl)ccc34)c[nH]c2c1 [BIM-11]
LC50 [1, 14]: 1180 µM | lethality (Vip3A resistant FAW; Vip3A-resistant neonates): 100%

Clc1ccc2c(C(c3ccccc3)c3c[nH]c4cc(Cl)ccc34)c[nH]c2c1 [BIM-25]
LC50 [1, 14]: 504 µM | lethality (Cry1Fa resistant FAW; neonates): strong lethality | lethality (Vip3A resistant FAW; neonates): strong lethality

Clc1ccc2c(C(Cc3ccccc3)c3c[nH]c4cc(Cl)ccc34)c[nH]c2c1 [BIM-26]
LC50 [1, 14]: 581 µM | lethality [13]: 60-70%

Clc1ccc2c(C(c3ccc(Br)cc3)c3c[nH]c4cc(Cl)ccc34)c[nH]c2c1 [BIM-28]
LC50 [1, 14]: 371 µM | lethality (Cry1Fa resistant FAW; Cry1 FAW neonates): 100%

Cc1ccc(C(c2c[nH]c3cc(Cl)ccc23)c2c[nH]c3cc(Cl)ccc23)cc1 [BIM-29]
LC50 ([1]; first instar larvae, calculated from killing dose curves FIG. 3D to 3NN, read-out: LD50 (the source's name)): 611 µM | lethality (Cry1Fa resistant FAW; Cry1 FAW neonates): 100%

O=[N+]([O-])c1ccc(C(c2c[nH]c3cc(Cl)ccc23)c2c[nH]c3cc(Cl)ccc23)cc1 [BIM-32]
lethality (Cry1Fa resistant FAW; neonates): strong lethality | lethality (Vip3A resistant FAW; neonates): strong lethality

Clc1ccc2c(C(c3ccccc3Br)c3c[nH]c4cc(Cl)ccc34)c[nH]c2c1 [BIM-34]
LC50 [1, 14]: 352 µM | lethality (Cry1Fa resistant FAW; Cry1 FAW neonates): 100%
